Measurements published in ChEMBL document CHEMBL1122653, “Substituted (omega-aminoalkoxy) stilbene derivatives as a new class of anticonvulsants” (1984).

Tests used:
[1] = tested on: Mus musculus; assay: Ability to suppress PTZ (pentylenetetrazole ) induced tonic extensor convulsion in mice after oral administration at a dose 50 mg/kg; type: functional
[2] = tested on: Mus musculus; assay: Ability to suppress maximal electroshock induced tonic extensor convulsion in mice after oral administration at 50 mg/kg; type: functional
[3] = tested on: Mus musculus; assay: Ability to suppress PTZ (pentylenetetrazole) induced tonic extensor convulsion in mice after oral administration at a dose 50 mg/kg; type: functional
[4] = tested on: Mus musculus; assay: Ability to suppress MES (maximal electroshock ) induced tonic extensor convulsion in mice after oral administration at a dose 100 mg/kg; type: functional
[5] = tested on: Mus musculus; assay: Ability to suppress PTZ (pentylenetetrazole) induced tonic extensor convulsion in mice after oral administration at a dose 25 mg/kg; type: functional
[6] = tested on: Mus musculus; assay: Ability to suppress MES (maximal electroshock ) induced tonic extensor convulsion in mice after oral administration of the compound; type: functional
[7] = tested on: Mus musculus; assay: Ability to suppress PTZ (pentylenetetrazole ) induced tonic extensor convulsion in mice after oral administration of the compound; type: functional
[8] = tested on: Mus musculus; assay: Ability to suppress MES (maximal electroshock) induced tonic extensor convulsion in mice after oral administration at a dose 50 mg/kg; type: functional
[9] = tested on: Mus musculus; assay: Ability to suppress PTZ (pentylenetetrazole) induced tonic extensor convulsion in mice after oral administration of the compound; type: functional
[10] = Ratio of the dose showing muscle relaxant action in rats and the dose suppressing MES induced seizures in rats; type: functional
[11] = organism: Rattus norvegicus; assay: Muscle-relaxant action in vertical screen method.; type: functional
[12] = organism: Rattus norvegicus; assay: Ability to suppress MES ( maximal electroshock ) induced seizures in male Wistar rats; type: functional
[13] = organism: Rattus norvegicus; assay: Ability to suppress PTZ (pentylenetetrazole) induced clonic convulsions seizures in male Wistar rats; type: functional
[14] = organism: Rattus norvegicus; assay: Ability to suppress MES (maximal electroshock) induced seizures in male Wistar rats; type: functional
[15] = organism: Rattus norvegicus; assay: Ratio of the dose showing muscle relaxant action in rats and the dose suppressing MES induced seizures in rats
[16] = organism: Rattus norvegicus; assay: Muscle-relaxant action in vertical screen method; type: functional
[17] = organism: Rattus norvegicus; assay: Ability to suppress PTZ (convulsions seizures in male Wistar rats; type: functional

CN(C)CCCCOc1ccccc1/C=C/c1cccc(F)c1
inhibition in vivo at 50 mg/kg [1]: 12.5%

CC1CCCN(CCCCOc2ccccc2/C=C/c2ccccc2)C1 (stereo not given)
inhibition in vivo at 50 mg/kg [2]: 12.5%

CN(C)CCCOc1ccccc1/C=C/c1ccccc1
inhibition in vivo at 50 mg/kg [2]: 14.2% | inhibition in vivo at 50 mg/kg [3]: 87.5%

CCCOC1CCCN(CCCCOc2ccccc2/C=C/c2ccccc2)C1 (stereo not given)
inhibition in vivo at 50 mg/kg [2]: 0%

CN1CCN(CCCCOc2ccccc2/C=C/c2ccccc2F)CC1
inhibition in vivo at 50 mg/kg [2]: 0%

CN(C)CCCCOc1ccccc1/C=C/c1ccccc1F
inhibition in vivo at 50 mg/kg [1]: 17%

CN(C)CCCCCOc1ccccc1/C=C/c1ccccc1
inhibition in vivo at 100 mg/kg [4]: 81% | inhibition in vivo at 25 mg/kg [5]: 75%

OCC1CCCN(CCCCOc2ccccc2/C=C/c2ccccc2)C1 (stereo not given)
inhibition in vivo at 50 mg/kg [2]: 12.5%

CN1CCN(CCCCOc2ccccc2/C=C/c2ccccc2)CC1.Cl.Cl
ED50 [6]: 31.1 mg/kg | ED50 [7]: 11.1 mg/kg | inhibition in vivo at 50 mg/kg [8]: 0%

CCOC1CCCN(CCCCOc2ccccc2/C=C/c2ccccc2)C1.Cl (stereo not given)
ED50 [6]: 17.5 mg/kg | ED50 [9]: 9.8 mg/kg

CC(=O)OC1CCCN(CCCCOc2ccccc2/C=C/c2ccccc2)C1.Cl (stereo not given)
ED50 [6]: 18.7 mg/kg | ED50 [9]: 7.9 mg/kg

OC1CCN(CCCCOc2ccccc2/C=C/c2ccccc2)CC1
inhibition in vivo at 50 mg/kg [2]: 0% | inhibition in vivo at 50 mg/kg [1]: 50%

COC1CCCN(CCCCOc2ccccc2/C=C/c2ccccc2)C1.Cl (stereo not given)
ED50 [6]: 12.6 mg/kg | ED50 [9]: 9.3 mg/kg

COc1cccc(OCCCCN2CCN(C)CC2)c1/C=C/c1ccccc1.Cl.Cl
inhibition in vivo at 50 mg/kg [2]: 42.9% | ED50 [7]: 50 mg/kg

CN1CCN(CCCCOc2ccccc2/C=C/c2ccc(F)cc2)CC1.Cl.Cl
ED50 [6]: 39 mg/kg | ED50 [7]: 17.7 mg/kg

Cl.OC1CCCN(CCCCOc2ccccc2/C=C/c2ccccc2)C1 (stereo not given)
Therapeutic index [10]: >24 | ED50 [6]: 20 mg/kg | ED50 [11]: > 300 mg/kg | ED50 [12]: 12.5 mg/kg | ED50 [13]: 248 mg/kg

Cl.OC1CCCN(CCCCOc2ccccc2/C=C/c2ccc(F)cc2)C1 (stereo not given)
ED50 [6]: 21.9 mg/kg | ED50 [9]: 8.8 mg/kg

Cl.OC1CCCN(CCCCOc2ccccc2/C=C/c2cccc(F)c2)C1 (stereo not given)
ED50 [6]: 38 mg/kg

O=C(O)C1CCCN(CCCCOc2ccccc2/C=C/c2ccccc2)C1 (stereo not given)
inhibition in vivo at 50 mg/kg [2]: 12.5%

COC(=O)C1CCCN(CCCCOc2ccccc2/C=C/c2ccccc2)C1 (stereo not given)
inhibition in vivo at 50 mg/kg [2]: 0%

C(=C\c1ccccc1OCCCCN1CCOCC1)/c1ccccc1
inhibition in vivo at 50 mg/kg [2]: 14.3% | inhibition in vivo at 50 mg/kg [1]: 87.5%

CNCCCCOc1ccccc1/C=C/c1ccccc1.Cl
ED50 [6]: 118 mg/kg

Cc1ccccc1/C=C/c1ccccc1OCCCCN(C)C
inhibition in vivo at 50 mg/kg [1]: 16.7%

COc1ccccc1/C=C/c1ccccc1OCCCCN(C)C
inhibition in vivo at 50 mg/kg [2]: 0% | inhibition in vivo at 50 mg/kg [1]: 62.5%

C(=C\c1ccccc1OCCCCN1CCCCC1)/c1ccccc1
inhibition in vivo at 50 mg/kg [2]: 42.9% | inhibition in vivo at 50 mg/kg [3]: 100%

CCCN(CCC)CCCCOc1ccccc1/C=C/c1ccccc1
inhibition in vivo at 50 mg/kg [2]: 0%

C(=C\c1ccccc1OCCCCN1CCCC1)/c1ccccc1
inhibition in vivo at 50 mg/kg [2]: 42.9% | inhibition in vivo at 50 mg/kg [1]: 87.5%

CCN(CC)CCCCOc1ccccc1/C=C/c1ccccc1.Cl
ED50 [6]: 82 mg/kg | ED50 [7]: 11.5 mg/kg

CN(C)CCCCOc1ccccc1/C=C/c1ccc(F)cc1.Cl
inhibition in vivo at 100 mg/kg [4]: 14.3% | ED50 [7]: 15.4 mg/kg

COC1CCCN(CCCCOc2ccccc2/C=C/c2ccc(F)cc2)C1 (stereo not given)
inhibition in vivo at 50 mg/kg [2]: 12.5%

CN(C)CCN(C)CCCCOc1ccccc1/C=C/c1ccccc1
inhibition in vivo at 50 mg/kg [2]: 0%

CC(=O)N1CCN(CCCCOc2ccccc2/C=C/c2ccccc2)CC1
inhibition in vivo at 50 mg/kg [2]: 0% | inhibition in vivo at 50 mg/kg [1]: 12.5%

C(=C\c1ccccc1OCCCCN1CCNCC1)/c1ccccc1
inhibition in vivo at 50 mg/kg [2]: 0% | inhibition in vivo at 50 mg/kg [1]: 0%

CN(C)CCCCOc1ccc(/C=C/c2ccccc2)cc1
inhibition in vivo at 50 mg/kg [2]: 12.5%

CN(C)CCOc1ccccc1/C=C/c1ccccc1
inhibition in vivo at 50 mg/kg [3]: 75%

CCCN1CCN(CCCCOc2ccccc2/C=C/c2ccccc2)CC1
inhibition in vivo at 50 mg/kg [2]: 42.9% | inhibition in vivo at 50 mg/kg [1]: 87.5%

CN(C)CCCCOc1cccc(/C=C/c2ccccc2)c1
inhibition in vivo at 50 mg/kg [2]: 0%

CCN1CCN(CCCCOc2ccccc2/C=C/c2ccccc2)CC1
inhibition in vivo at 50 mg/kg [2]: 33.3%

CN(C)CCCCOc1ccccc1/C=C/c1cccc(Cl)c1
inhibition in vivo at 50 mg/kg [2]: 14.3% | inhibition in vivo at 50 mg/kg [1]: 23.9%

NC(=O)C1CCCN(CCCCOc2ccccc2/C=C/c2ccccc2)C1 (stereo not given)
inhibition in vivo at 50 mg/kg [2]: 0%

CN(C)CCCCOc1ccccc1/C=C/c1ccccc1Cl
inhibition in vivo at 50 mg/kg [2]: 14.3% | inhibition in vivo at 50 mg/kg [1]: 50%

CN(C)CCCCOc1ccccc1/C=C/c1ccc(Cl)cc1
inhibition in vivo at 50 mg/kg [2]: 0% | inhibition in vivo at 50 mg/kg [1]: 62.5%

CN1CCN(CCCCOc2ccccc2/C=C/c2ccc(Cl)c(Cl)c2)CC1
inhibition in vivo at 50 mg/kg [2]: 0% | inhibition in vivo at 50 mg/kg [1]: 0%

CN1CCN(CCCCOc2ccccc2/C=C/c2cccc(Cl)c2)CC1
inhibition in vivo at 50 mg/kg [2]: 0% | inhibition in vivo at 50 mg/kg [1]: 50%

OC1CCCN(CCCCOc2ccc(Cl)cc2/C=C/c2ccccc2)C1 (stereo not given)
inhibition in vivo at 50 mg/kg [2]: 12.5%

COc1cccc(/C=C/c2ccccc2)c1OCCCCN(C)C
inhibition in vivo at 50 mg/kg [2]: 57.1% | ED50 [7]: 21.6 mg/kg

OC1CCCN(CCCCOc2ccccc2/C=C/c2cccc(Cl)c2)C1 (stereo not given)
inhibition in vivo at 50 mg/kg [2]: 12.5%

NC(=O)N1c2ccccc2C=Cc2ccccc21 [CARBAMAZEPINE]
ED50 [14]: 32 mg/kg | ED50 [11]: 120 mg/kg | Therapeutic index [15]: 3.75 | ED50 [13]: 300 mg/kg

O=C1NC(=O)C(c2ccccc2)(c2ccccc2)N1 [PHENYTOIN]
Therapeutic index [10]: >6.25 | ED50 [12]: 40 mg/kg | ED50 [16]: > 250 mg/kg | ED50 [17]: 250 mg/kg
